From patent US20080027035A1, “Dpp-Iv Inhibitors” (GRAFFINITY PHARMACEUTICALS AG, priority 2003, published 2008)

What follows are compounds tested against T1, DPP-IV (Homo sapiens, UniProt P27487) (assay: Inhibition of DPP-IV peptidase activity, continuous fluorimetric assay (Gly-Pro-AMC cleavage)). Settings: 16 μM Gly-Pro-AMC, pH 7.4, 25° C., 1% DMSO.
T1 construct: Soluble human DPP-IV lacking the transmembrane anchor (Gly31-Pro766); Pre-Pro-alpha-mating factor leader (secretion signal) (N, cleaved yes); made in house
T1 sequence (P27487 31-766): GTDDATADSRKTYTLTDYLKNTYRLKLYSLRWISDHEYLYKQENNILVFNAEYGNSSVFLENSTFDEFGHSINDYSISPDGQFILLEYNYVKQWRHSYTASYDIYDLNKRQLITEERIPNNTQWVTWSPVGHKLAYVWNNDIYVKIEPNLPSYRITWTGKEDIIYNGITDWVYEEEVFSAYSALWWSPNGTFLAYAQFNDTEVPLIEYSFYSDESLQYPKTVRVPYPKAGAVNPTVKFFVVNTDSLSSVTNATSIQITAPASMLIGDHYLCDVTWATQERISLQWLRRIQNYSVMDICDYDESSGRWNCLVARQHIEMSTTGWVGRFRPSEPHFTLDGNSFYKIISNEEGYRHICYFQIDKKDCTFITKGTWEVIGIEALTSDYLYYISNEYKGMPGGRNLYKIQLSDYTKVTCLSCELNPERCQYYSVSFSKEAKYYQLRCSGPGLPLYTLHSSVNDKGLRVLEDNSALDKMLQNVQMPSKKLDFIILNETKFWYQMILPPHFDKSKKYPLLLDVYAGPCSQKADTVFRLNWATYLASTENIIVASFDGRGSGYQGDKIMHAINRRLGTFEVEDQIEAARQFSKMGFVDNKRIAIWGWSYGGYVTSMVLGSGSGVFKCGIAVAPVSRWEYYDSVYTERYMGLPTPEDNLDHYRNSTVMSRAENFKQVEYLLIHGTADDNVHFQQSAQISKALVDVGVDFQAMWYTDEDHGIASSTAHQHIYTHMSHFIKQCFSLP
Type: biochemical
Procedure: Inhibition of DPP-IV peptidase activity was monitored with a continuous fluorimetric assay. This assay is based on the cleavage of the substrate Gly-Pro-AMC (Bachem) by DPP-IV, releasing free AMC. The assay is carried out in 96-well microtiterplates. In a total volume of 100 μL, compounds are preincubated with […] employing a buffer containing 10 mM Hepes, 150 mM NaCl, 0.005% Tween 20 (pH 7.4). […] The final concentration of DMSO is 1%. The inhibitory potential of the compounds were determined.
Soluble human DPP-IV lacking the transmembrane anchor (Gly31-Pro766) was expressed in a recombinant YEAST-strain as Pre-Pro-alpha-mating fusion.

IC50 [µM]	Compound
< 0.1	N[C@@H](CC(=O)N1CCC[C@H]1CNS(=O)(=O)c1cccc(F)c1)Cc1ccccc1F [Example 79]
< 0.1	N[C@@H](CC(=O)N1CCC[C@H]1CNC(=O)c1ccncc1)Cc1ccccc1F [Example 60]
< 0.1	N[C@@H](CC(=O)N1CCC[C@H]1CNC(=O)c1ccccc1)Cc1cccc(Cl)c1 [Example 45]
0.101 to 1	N[C@@H](CC(=O)N1CCC[C@H]1CNC(=O)c1ccccc1)Cc1ccccc1 [Example 49]
< 0.1	N[C@@H](CC(=O)N1CCC[C@H]1COc1cccc(F)c1)Cc1ccccc1F [Example 40]
< 0.1	CS(=O)(=O)c1ccccc1C(=O)NC[C@@H]1CCCN1C(=O)C[C@H](N)Cc1ccccc1F [Example 62]
0.101 to 1	N[C@@H](CC(=O)N1CC(CNC(=O)c2ccccc2)C1)Cc1ccccc1F [Example 90, N-{1-[(3R)-Amino-4-(2-fluoro-phenyl)-butyryl]-azetidin-3-ylmethyl}-benzamide]
0.101 to 1	N[C@@H](CC(=O)N1CCCC(CNS(=O)(=O)c2ccccc2)C1)Cc1ccccc1F (stereo partly shown) [Example 89, N-{1-[3-Amino-4-(2-fluoro-phenyl)-butyryl]-piperidin-3-ylmethyl}-benzenesulfonamide]
0.101 to 1	N[C@@H](CC(=O)N1CCC[C@H]1CNc1nc(-c2ccccc2)no1)Cc1ccccc1F [Example 100, (3R)-Amino-4-(2-fluorophenyl)-1-{(2S)-[(3-phenyl-[1,2,4]oxadiazol-5-ylamino)-methyl]-pyrrolidin-1-yl}butan-1-one]
0.101 to 1	N[C@@H](CC(=O)N1CCC[C@H]1CNc1cnccn1)Cc1ccccc1F [Example 69]
0.101 to 1	N#Cc1cccc(C[C@@H](N)CC(=O)N2CCC[C@H]2CNC(=O)c2ccccc2)c1 [Example 47]
< 0.1	N[C@@H](CC(=O)N1CCC[C@H]1CNC(=O)c1ccccc1)Cc1ccccc1Cl [Example 48]
< 0.1	N[C@@H](CC(=O)N1CCC[C@H]1CNC(=O)c1cccnc1)Cc1ccccc1F [Example 59]
< 0.1	N[C@@H](CC(=O)N1CCC[C@H]1CNC(=O)c1cccc(F)c1)Cc1ccccc1F [Example 56]
< 0.1	N[C@@H](CC(=O)N1CCC[C@H]1CNS(=O)(=O)c1ccc(F)cc1)Cc1ccccc1F [Example 84]
< 0.1	N[C@@H](CC(=O)N1CCC[C@H]1CNC(=O)c1ccccc1F)Cc1ccccc1F [Example 55]
< 0.1	N[C@@H](CC(=O)N1CCC[C@H]1CNS(=O)(=O)c1ccccc1F)Cc1ccccc1F [Example 83]
< 0.1	CS(=O)(=O)NC[C@@H]1CCCN1C(=O)C[C@H](N)Cc1ccccc1F [Example 85]
< 0.1	N[C@@H](CC(=O)N1CCC[C@H]1CNS(=O)(=O)c1cc(Cl)ccc1Cl)Cc1ccccc1F [Example 82]
< 0.1	N[C@@H](CC(=O)N1CCC[C@H]1CNS(=O)(=O)c1ccc(Cl)cc1)Cc1ccccc1F [Example 81]
< 0.1	COc1ccc(S(=O)(=O)NC[C@@H]2CCCN2C(=O)C[C@H](N)Cc2ccccc2F)cc1OC [Example 78, N-{1-[3-Amino-4-(2-fluoro-phenyl)-butyryl]-pyrrolidin-2-ylmethyl}-3,4-dimethoxy-benzenesulfonamide]
1 to 2	N[C@@H](CC(=O)N1CCCC(CO)C1)Cc1ccccc1F (mixture of isomers) [Example 105, 3-Amino-4-(2-fluoro-phenyl)-1-(3-hydroxymethyl-piperidin-1-yl)-butan-1-one]
< 0.1	N#Cc1ccccc1OC[C@@H]1CCCN1C(=O)C[C@H](N)Cc1ccccc1F [Example 37]
< 0.1	N[C@@H](CC(=O)N1CCC[C@H]1CNC(=O)c1ccc(F)cc1)Cc1ccccc1F [Example 57]
< 0.1	N[C@@H](CC(=O)N1CCC[C@H]1CNC(=O)c1ccccc1)Cc1ccc(F)c(F)c1 [Example 50]
0.101 to 1	N[C@@H](CC(=O)N1CCC[C@H]1CN1CCCC1)Cc1cccc(Cl)c1 [Example 67]

IC50 [µM]	Compound
< 0.1	COc1cccc(C(=O)NC[C@@H]2CCCN2C(=O)C[C@H](N)Cc2ccccc2F)c1 [Example 54, N-{1-[3-Amino-4-(2-fluoro-phenyl)-butyryl]-pyrrolidin-2-ylmethyl}-3-methoxy-benzamide]
< 0.1	N#Cc1ccc(OC[C@@H]2CCCN2C(=O)C[C@H](N)Cc2ccccc2F)cc1 [Example 34]
0.101 to 1	N[C@@H](CC(=O)N1CCC[C@H]1COCc1ccccc1)Cc1ccccc1F [Example 32, (3R)-Amino-1-[(2S)-benzyloxymethyl-pyrrolidin-1-yl]-4-(2-fluoro-phenyl)-butan-1-one]
1 to 2	N[C@@H](CC(=O)N1CC(COc2ccccc2)C1)Cc1ccccc1F [Example 92, 3-Amino-4-(2-fluoro-phenyl)-1-(3-phenoxymethyl-azetidin-1-yl)-butan-1-one]
0.101 to 1	N[C@@H](CC(=O)N1CCCC[C@H]1CNS(=O)(=O)c1ccccc1)Cc1ccccc1F [Example 88, N-{1-[(3R)-Amino-4-(2-fluoro-phenyl)-butyryl]-piperidin-(2S)-ylmethyl}-benzenesulfonamide]
< 0.1	N[C@@H](CC(=O)N1CCC[C@H]1CNC(=O)c1ccccc1)Cc1cccc(F)c1 [Example 46]
1 to 2	N[C@@H](CC(=O)N1CC(COc2ccccn2)C1)Cc1ccccc1F [Example 93]
< 0.1	N[C@@H](CC(=O)N1CCC[C@H]1COc1ccccc1)Cc1ccccc1F [Example 35]
< 0.1	CS(=O)(=O)c1ccc(-c2noc(NC[C@@H]3CCCN3C(=O)C[C@H](N)Cc3ccccc3F)n2)cc1 [Example 104, (3R)-Amino-4-(2-fluorophenyl)-1-((2S)-{[3-(4-methanesulphonylphenyl)-[1,2,4]oxadiazol-5-ylamino]-methyl}-pyrrolidin-1-yl)-butan-1-one]
< 0.1	N[C@@H](CC(=O)N1CCC[C@H]1COc1ccccn1)Cc1ccccc1F [Example 39]
< 0.1	CS(=O)(=O)c1ccc(C(=O)NC[C@@H]2CCCN2C(=O)C[C@H](N)Cc2ccccc2F)cc1 [Example 61]
< 0.1	N[C@@H](CC(=O)N1CCC[C@H]1CNC(=O)Nc1ccccc1)Cc1ccccc1F [Example 86, 1-{1-[(3R)-Amino-4-(2-fluoro-phenyl)-butyryl]-pyrrolidin-(2S)-ylmethyl}-3-phenyl-urea]
0.101 to 1	N[C@@H](CC(=O)N1CC(CNS(=O)(=O)c2ccccc2)C1)Cc1ccccc1F [Example 91, N-{1-[3-Amino-4-(2-fluoro-phenyl)-butyryl]-azetidin-3-ylmethyl}-benzenesulfonamide]
< 0.1	N[C@@H](CC(=O)N1CCC[C@H]1CNc1nc(-c2cccc(Cl)c2)no1)Cc1ccccc1F [Example 102]
< 0.1	COc1ccc(S(=O)(=O)NC[C@@H]2CCCN2C(=O)C[C@H](N)Cc2ccccc2F)cc1 [Example 80]
< 0.1	N[C@@H](CC(=O)N1CCC[C@H]1CNc1ccccc1)Cc1ccccc1F [Example 66, (3R)-Amino-4-(2-fluoro-phenyl)-1-[(2S)-phenylaminomethyl-pyrrolidin-1-yl]-butan-1-one]
< 0.1	N#Cc1ccc(NC[C@@H]2CCCN2C(=O)C[C@H](N)Cc2ccccc2F)nc1 [Example 68, 6-({1-[3-Amino-4-(2-fluoro-phenyl)-butyryl]-pyrrolidin-2-ylmethyl}-amino)-nicotinonitrile]
< 0.1	N#Cc1cccc(OC[C@@H]2CCCN2C(=O)C[C@H](N)Cc2ccccc2F)c1 [Example 36]
0.101 to 1	COC[C@@H]1CCCN1C(=O)C[C@H](N)Cc1ccccc1F [Example 33]
1 to 2	N[C@@H](CC(=O)N1CCC[C@H]1CNc1nc(-c2cccc(F)c2)no1)Cc1ccccc1F [Example 103, (3R)-Amino-4-(2-fluorophenyl)-1-((2S)-{[3-(3-fluorophenyl)-[1,2,4]oxadiazol-5-ylamino]-methyl}-pyrrolidin-1-yl)-butan-1-one]
0.101 to 1	N[C@@H](CC(=O)N1CCC[C@H]1CNC(=O)c1ccccc1)Cc1ccc(F)cc1 [Example 44]
0.101 to 1	N[C@@H](CC(=O)N1CCCC[C@H]1CNC(=O)c1ccccc1)Cc1ccccc1F [Example 87, N-{1-[(3R)-Amino-4-(2-fluoro-phenyl)-butyryl]-piperidin-(2S)-ylmethyl}-benzamide]
0.101 to 1	N[C@@H](CC(=O)N1CCCC(CNC(=O)c2ccccc2)C1)Cc1ccccc1F (mixture of isomers) [Example 94, N-{1-[(3R)-Amino-4-(2-fluoro-phenyl)-butyryl]-piperidin-3-ylmethyl}-benzamide]
< 0.1	N[C@@H](CC(=O)N1CCC[C@H]1CNc1nc(-c2ccccn2)no1)Cc1ccccc1F [Example 101, (3R)-Amino-4-(2-fluorophenyl)-1-{(2 S)-[(3-pyridin-2-yl-[1,2,4]oxadiazol-5-ylamino)-methyl]-pyrrolidin-1-yl}-butan-1-one]
< 0.1	N[C@@H](CC(=O)N1CCC[C@H]1COc1cccc(F)c1)Cc1cccc(Cl)c1 [Example 41]
< 0.1	N[C@@H](CC(=O)N1CCC[C@H]1COc1ccc(F)cc1)Cc1ccccc1F [Example 38]
